Laboratory results: patent US20220402917A1, “COMPOUND AS SMALL MOLECULE INHIBITOR PD-1/PD-L1 AND APPLICATION THEREOF” (MEDSHINE DISCOVERY INC., priority 2019, published 2022)
pIC50: −log10 of the molar value.

Assays:
PD1/PD-L1 [1] = biological target: T1, PD1/PD-L1 (Homo sapiens, UniProt Q9NZQ7); test: NFAT activity test (TCR Activitor/PD-L1 CHO cells with PD-1/NFAT Reporter-Jurkat cells); assay type: cell-based; parameters: host or cells: TCR Activitor/PD-L1 CHO cells; PD-1/NFAT Reporter-Jurkat cells; settings: TCR Activitor/PD-L1 CHO cells + PD-1/NFAT Reporter-Jurkat cells, 5 hours, luciferase
Method in brief: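 TCR activator/PD-L1 CHO cells were pretreated 30 min at 37 °C with compound (20 μM to 0.25 nM, 5-fold steps, 2% DMSO). PD-1/NFAT reporter Jurkat cells were then added for 5 h at 37 °C. NFAT-driven luciferase read by Bright-Glo luminescence, normalised to Min/Max, IC50 from 4-parameter fit.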
Target sequence in this assay (Q9NZQ7 19-290): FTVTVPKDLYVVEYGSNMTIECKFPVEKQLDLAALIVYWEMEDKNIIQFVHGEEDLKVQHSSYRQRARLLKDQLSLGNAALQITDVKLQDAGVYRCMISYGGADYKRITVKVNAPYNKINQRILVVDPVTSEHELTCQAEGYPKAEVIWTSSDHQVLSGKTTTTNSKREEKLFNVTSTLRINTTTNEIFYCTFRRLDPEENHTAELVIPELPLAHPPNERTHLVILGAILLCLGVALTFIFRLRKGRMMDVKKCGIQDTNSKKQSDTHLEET

PD1/PD-L1 [2] = biological target: T1, PD1/PD-L1; test: PD-1/PD-L1 homogeneous time-resolved fluorescence (HTRF) binding experiment; parameters: purchased BPS Biosciences; settings: HTRF (TR-FRET), PD-L1-biotin, PD1-Eu
Description: Experimental Example 1: PD-1/PD-L1 Homogenouse Time-Resolved Fluorescence (HTRF) Binding Experiment
When the PD-1 molecule as the donor is very close to the PD-L1 molecule as the acceptor, the donor molecule will transfer the energy to the receptor molecule, which in turn causes the receptor molecule to emit fluorescence. The ability of small molecules to prevent the binding of PD-L1 to PD-1 can be tested by detecting the intensity of fluorescence. A homogeneous time-resolved fluorescence (HTRF) binding experiment is used to detect the ability of the compounds of the present disclosure to inhibit the binding of PD-1/PD-L1.
PD1/PD-L1 TR-FRET detection kit was purchased from BPS Biosciences. Nivo multi-label analyzer (PerkinElmer).
PD1-Eu, Dye-labeled acceptor, PD-L1-biotin and compounds to be tested were diluted with the buffer in the kit. The compounds to be tested were subjected to 5-fold dilution to eight concentration gradients with a row gun. That is, from 40 μM to 0.5 nM, the DMSO concentration was 4%, and a double-well experiment was set up. 5 μL of inhibitor with each concentration gradient were added to the microwell plate, and 5 μL buffer containing 4% DMSO and 5 μL PD-L1-biotin (PD-L1-biotin) (60 nM) were added into well with the maximum signal (Max) and the well with the minimum signal (Min), only 5 μL of buffer was added to the well with the minimum signal (Min), and the incubation was conducted at 25° C. for 20 minutes. After the incubation was completed, 5 μL of diluted PD1-Eu (10 nM) and […] were added to each well. The reaction system was placed at 25° C. for 90 minutes. The TR-FRET signal was read by a multi-label analyzer after the reaction was completed.
Using the equation (sample−Min)/(Max−Min)×100% to convert the raw data into inhibition rate, and the IC50 value can be obtained by curve fitting with four parameters (obtained from log(inhibitor) vs. response—Variable slope mode in GraphPad Prism). Table 1 provides the inhibitory activity of the compounds of the examples of the present disclosure on PD1/PD-L1 binding
Target sequence in this assay (Q9NZQ7 19-239 limits assumed): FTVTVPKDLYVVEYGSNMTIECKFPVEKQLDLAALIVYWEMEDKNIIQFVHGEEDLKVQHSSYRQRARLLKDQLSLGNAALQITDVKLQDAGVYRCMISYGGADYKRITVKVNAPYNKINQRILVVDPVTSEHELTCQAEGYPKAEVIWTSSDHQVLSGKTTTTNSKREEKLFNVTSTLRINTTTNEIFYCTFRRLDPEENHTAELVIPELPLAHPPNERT

Maximum effect (induction fold) (PD1/PD-L1 [1]): 3.96 induction fold
pIC50 (PD1/PD-L1 [1]; read-out: IC50, inhibitory activity on PD1/PD-L1 binding (NFAT activity test)): 7.86
pIC50 (PD1/PD-L1 [2]): 8.15
Structure (SMILES): COc1nc(-c2cccc(-c3cccc(NC(=O)c4cc(C)c5c(n4)CN(CCO)CC5)c3Cl)c2Cl)cnc1CN1CC(O)C1 [Compound 21]
